Results taken from patent US10457710B2, “Antimicrobial peptides, their variants and uses” (priority 2015, dated 2019).
≈ marks a conversion by molar mass, not a printed value. Where a SMILES comes first, the peptide text is derived from it. [ ]: non-standard residue; d: D form.

Columns and labels:
Format in all cases: cell-based
[1] = test system: clinical strains of S. pneumoniae; test: MIC, microdilution, clinical strains; details: 0.02% BSA, 0.2% acetic acid
Summary of the method: (§1)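 Overnight MH agar colonies were suspended in MH broth to 5.0×10^5 cfu/ml, mixed with serial peptide dilutions (0.125–128 μg/ml) and incubated at 37° C for 20 to 24 hours. Yeast MICs were run the same way in potato dextrose broth, and wells were scored visually.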

[2] = test system: clinical strains of K. pneumoniae; test: MIC, microdilution, clinical strains; details: 0.02% BSA, 0.2% acetic acid
Summary of the method: as §1

[3] = test system: clinical strains of E. coli; test: MIC, microdilution, clinical strains
Summary of the method: as §1

[4] = test system: clinical strains of P. aeruginosa; test: MIC, microdilution, clinical strains; details: 0.02% BSA, 0.2% acetic acid
Summary of the method: as §1

[5] = test system: clinical strains of Proteus mirabilis; test: MIC, microdilution, clinical strains; details: 0.02% BSA, 0.2% acetic acid
Summary of the method: as §1

[6] = test system: clinical strains of Serratia marcescens; test: MIC, microdilution, clinical strains; details: 0.02% BSA, 0.2% acetic acid
Summary of the method: as §1

[7] = test system: clinical strains of E. cloacae; test: MIC, microdilution, clinical strains; details: 0.02% BSA, 0.2% acetic acid
Summary of the method: as §1

[8] = test system: clinical strains of S. aureus; test: MIC, microdilution, clinical strains; details: 0.02% BSA, 0.2% acetic acid
Summary of the method: as §1

C. glabrata = test: MIC, clinical yeast strains
Summary of the method: as §1

C. parapsilosis = test: MIC, clinical yeast strains
Summary of the method: as §1

Candida albicans = test: MIC, clinical yeast strains
Summary of the method: as §1

[9] = test system: clinical strains of Acinetobacter baumannii; test: MIC, microdilution, clinical strains; set-up: unit: μg/ml; details: 0.02% BSA, 0.2% acetic acid
Summary of the method: as §1

[10] = test system: clinical strains of A. johnsonii; test: MIC, microdilution, clinical strains; set-up: unit: μg/ml; details: Acinetobacter johnsonii strain 1, Muller Hinton broth-cation adjusted, 0.02% BSA, 0.2% acetic acid
Summary of the method: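 Visual growth inhibition defined the MIC in a microdilution assay where fungal strains were cultured in potato dextrose broth instead of MH broth. Cell density was set to 5.0×10^5 cfu/ml, and incubation lasted 20–24 h at 37° C across a 0.125–128 μg/ml series.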

C. quillermondiae = test: MIC, clinical yeast strains; set-up: Minimum inhibitory concentration: unit: μg/ml; details: C. quillermondiae clinical yeast strain 1
Summary of the method: as §1

[11] = Streptococcus pneumoniae strain 1, Muller Hinton broth-cation adjusted
[12] = Streptococcus pneumoniae strain 2, Muller Hinton broth-cation adjusted
[13] = Streptococcus pneumoniae strain 3, Muller Hinton broth-cation adjusted
[14] = Streptococcus pneumoniae strain 4, Muller Hinton broth-cation adjusted
[15] = Streptococcus pneumoniae strain 5, Muller Hinton broth-cation adjusted
[16] = Klebsiella pneumoniae strain 1, Muller Hinton broth-cation adjusted
[17] = Klebsiella pneumoniae strain 2, Muller Hinton broth-cation adjusted
[18] = Klebsiella pneumoniae strain 3, Muller Hinton broth-cation adjusted
[19] = Klebsiella pneumoniae strain 4, Muller Hinton broth-cation adjusted
[20] = Klebsiella pneumoniae strain 5, Muller Hinton broth-cation adjusted
[21] = Escherichia coli strain 1, microdilution, Muller Hinton broth-cation adjusted, 0.02% BSA, 0.2% acetic acid
[22] = Escherichia coli strain 2, microdilution, Muller Hinton broth-cation adjusted, 0.02% BSA, 0.2% acetic acid
[23] = Escherichia coli strain 3, microdilution, Muller Hinton broth-cation adjusted, 0.02% BSA, 0.2% acetic acid
[24] = Escherichia coli strain 4, microdilution, Muller Hinton broth-cation adjusted, 0.02% BSA, 0.2% acetic acid
[25] = Escherichia coli strain 5, microdilution, Muller Hinton broth-cation adjusted, 0.02% BSA, 0.2% acetic acid
[26] = Pseudomonas aeruginosa strain 1, Muller Hinton broth-cation adjusted
[27] = Pseudomonas aeruginosa strain 2, Muller Hinton broth-cation adjusted
[28] = Pseudomonas aeruginosa strain 3, Muller Hinton broth-cation adjusted
[29] = Pseudomonas aeruginosa strain 4, Muller Hinton broth-cation adjusted
[30] = Pseudomonas aeruginosa strain 5, Muller Hinton broth-cation adjusted
[31] = Proteus mirabilis strain 1, Muller Hinton broth-cation adjusted
[32] = Proteus mirabilis strain 2, Muller Hinton broth-cation adjusted
[33] = Proteus mirabilis strain 3, Muller Hinton broth-cation adjusted
[34] = Proteus mirabilis strain 4, Muller Hinton broth-cation adjusted
[35] = Proteus mirabilis strain 5, Muller Hinton broth-cation adjusted
[36] = Serratia marcescens strain 1, Muller Hinton broth-cation adjusted
[37] = Serratia marcescens strain 2, Muller Hinton broth-cation adjusted
[38] = Serratia marcescens strain 3, Muller Hinton broth-cation adjusted
[39] = Serratia marcescens strain 4, Muller Hinton broth-cation adjusted
[40] = Serratia marcescens strain 5, Muller Hinton broth-cation adjusted
[41] = Enterobacter cloacae strain 1, Muller Hinton broth-cation adjusted
[42] = Enterobacter cloacae strain 2, Muller Hinton broth-cation adjusted
[43] = Enterobacter cloacae strain 3, Muller Hinton broth-cation adjusted
[44] = Enterobacter cloacae strain 4, Muller Hinton broth-cation adjusted
[45] = Enterobacter cloacae strain 5, Muller Hinton broth-cation adjusted
[46] = Staphylococcus aureus strain 1, Muller Hinton broth-cation adjusted
[47] = Staphylococcus aureus strain 2, Muller Hinton broth-cation adjusted
[48] = Staphylococcus aureus strain 3, Muller Hinton broth-cation adjusted
[49] = Staphylococcus aureus strain 4, Muller Hinton broth-cation adjusted
[50] = Staphylococcus aureus strain 5, Muller Hinton broth-cation adjusted
[51] = C. glabrata clinical yeast strain 1
[52] = C. glabrata clinical yeast strain 2
[53] = C. glabrata clinical yeast strain 3
[54] = C. glabrata clinical yeast strain 4
[55] = C. parapsilosis clinical yeast strain 1
[56] = C. parapsilosis clinical yeast strain 2
[57] = C. parapsilosis clinical yeast strain 3
[58] = C. parapsilosis clinical yeast strain 4
[59] = Candida albicans clinical yeast strain 1
[60] = Candida albicans clinical yeast strain 2
[61] = Candida albicans clinical yeast strain 3
[62] = Candida albicans clinical yeast strain 4
[63] = Candida albicans clinical yeast strain 5
[64] = Acinetobacter baumannii strain 1, Muller Hinton broth-cation adjusted
[65] = Acinetobacter baumannii strain 2, Muller Hinton broth-cation adjusted
[66] = Acinetobacter baumannii strain 3, Muller Hinton broth-cation adjusted
[67] = Acinetobacter baumannii strain 4, Muller Hinton broth-cation adjusted
[68] = Acinetobacter baumannii strain 5, Muller Hinton broth-cation adjusted

For `CC(C)C[C@@H](NC(=O)[C@H](N)CCCNC(=N)N)C(=O)N[C@H](CCCCN)C(=O)N[C@H](CCCNC(=N)N)C(=O)N[C@H](Cc1c[nH]c2ccccc12)C(=O)N[C@H](CCCNC(=N)N)C(=O)N[C@H](CC(C)C)C(=O)N[C@H](Cc1ccccc1)C(=O)N[C@H](CCCNC(=N)N)C(=O)N[C@H](CCCCN)C(=O)N[C@H](CCCNC(=N)N)C(=O)O` [Chain306D] (H-[dR][dL][dK][dR][dW][dR][dL][dF][dR][dK][dR]-OH), the Minimum inhibitory concentration [1, 11] was 64, the Minimum inhibitory concentration [1, 12] was 64 and the Minimum inhibitory concentration [1, 13] was 64. The Minimum inhibitory concentration [1, 14] was 128, the Minimum inhibitory concentration [1, 15] was 64 and the Minimum inhibitory concentration [2, 16] was 128. The Minimum inhibitory concentration [2, 17] was over 128, the Minimum inhibitory concentration [2, 18] was over 128 and the Minimum inhibitory concentration [2, 19] was 64. The Minimum inhibitory concentration [2, 20] was 64, the Minimum inhibitory concentration [3, 21] was 1 and the Minimum inhibitory concentration [3, 22] was 2. The Minimum inhibitory concentration [3, 23] was 2, the Minimum inhibitory concentration [3, 24] was 2 and the Minimum inhibitory concentration [3, 25] was 2. It also gave a Minimum inhibitory concentration ([3]; clinical strains, peptide synthesized as D-form amino acids) of 1 µg/mL (≈ 0.619 µM), a Minimum inhibitory concentration [4, 26] of 128 and a Minimum inhibitory concentration [4, 27] of over 128. For the same compound, the Minimum inhibitory concentration [4, 28] was 128, the Minimum inhibitory concentration [4, 29] was over 128 and the Minimum inhibitory concentration [4, 30] was 128. The Minimum inhibitory concentration [5, 31] was over 128, the Minimum inhibitory concentration [5, 32] was over 128 and the Minimum inhibitory concentration [5, 33] was over 128. The Minimum inhibitory concentration [5, 34] was over 128, the Minimum inhibitory concentration [5, 35] was over 128 and the Minimum inhibitory concentration [6, 36] was over 128. The Minimum inhibitory concentration [6, 37] was over 128, the Minimum inhibitory concentration [6, 38] was over 128 and the Minimum inhibitory concentration [6, 39] was over 128. The Minimum inhibitory concentration [6, 40] was over 128, the Minimum inhibitory concentration [7, 41] was 64 and the Minimum inhibitory concentration [7, 42] was 64. The Minimum inhibitory concentration [7, 43] was 32, the Minimum inhibitory concentration [7, 44] was 16 and the Minimum inhibitory concentration [7, 45] was 16. For the same compound, the Minimum inhibitory concentration [8, 46] was 16, the Minimum inhibitory concentration [8, 47] was 32 and the Minimum inhibitory concentration [8, 48] was 32. The Minimum inhibitory concentration [8, 49] was 16, the Minimum inhibitory concentration [8, 50] was 8 and the Minimum inhibitory concentration (C. glabrata; [51]) was 8. It also gave a Minimum inhibitory concentration (C. glabrata; [52]) of 8, a Minimum inhibitory concentration (C. glabrata; [53]) of 16 and a Minimum inhibitory concentration (C. glabrata; [54]) of 32. For the same compound, the Minimum inhibitory concentration (C. parapsilosis; [55]) was 8, the Minimum inhibitory concentration (C. parapsilosis; [56]) was 16 and the Minimum inhibitory concentration (C. parapsilosis; [57]) was 16. It also gave a Minimum inhibitory concentration (C. parapsilosis; [58]) of 4, a Minimum inhibitory concentration (Candida albicans; [59]) of 16 and a Minimum inhibitory concentration (Candida albicans; [60]) of 8. The Minimum inhibitory concentration (Candida albicans; [61]) was 8, the Minimum inhibitory concentration (Candida albicans; [62]) was 16 and the Minimum inhibitory concentration (Candida albicans; [63]) was 16. The Minimum inhibitory concentration [9, 64] was 16, the Minimum inhibitory concentration [9, 65] was 32 and the Minimum inhibitory concentration [9, 66] was 16. The Minimum inhibitory concentration [9, 67] was 16, the Minimum inhibitory concentration [9, 68] was 8 and the Minimum inhibitory concentration [10] was 16. It also gave a Minimum inhibitory concentration (C. quillermondiae) of 4.

With `CC(C)C[C@@H](NC(=O)[C@H](N)CCCNC(=N)N)C(=O)N[C@H](CCCCN)C(=O)N[C@H](Cc1c[nH]c2ccccc12)C(=O)N[C@H](Cc1ccccc1)C(=O)N[C@H](CC(C)C)C(=O)N[C@H](CC(C)C)C(=O)N[C@H](Cc1ccccc1)C(=O)N[C@H](CCCNC(=N)N)C(=O)N[C@H](CCCCN)C(=O)N[C@H](CCCNC(=N)N)C(=O)O` [Chain308D] (H-[dR][dL][dK][dW][dF][dL][dL][dF][dR][dK][dR]-OH) the Minimum inhibitory concentration [1, 11] was 8, the Minimum inhibitory concentration [1, 12] was 4 and the Minimum inhibitory concentration [1, 13] was 8. It also gave a Minimum inhibitory concentration [1, 14] of 2, a Minimum inhibitory concentration [1, 15] of 4 and a Minimum inhibitory concentration [2, 16] of 4. For the same compound, the Minimum inhibitory concentration [2, 17] was 4, the Minimum inhibitory concentration [2, 18] was 4 and the Minimum inhibitory concentration [2, 19] was 4. It also gave a Minimum inhibitory concentration [2, 20] of 4, a Minimum inhibitory concentration [3, 21] of 1 and a Minimum inhibitory concentration [3, 22] of 0.5. For the same compound, the Minimum inhibitory concentration [3, 23] was 1, the Minimum inhibitory concentration [3, 24] was 1 and the Minimum inhibitory concentration [3, 25] was 1. For the same compound, the Minimum inhibitory concentration [4, 26] was 8, the Minimum inhibitory concentration [4, 27] was 8 and the Minimum inhibitory concentration [4, 28] was 4. For the same compound, the Minimum inhibitory concentration [4, 29] was 4, the Minimum inhibitory concentration [4, 30] was 4 and the Minimum inhibitory concentration [5, 31] was over 128. It also gave a Minimum inhibitory concentration [5, 32] of 32, a Minimum inhibitory concentration [5, 33] of 128 and a Minimum inhibitory concentration [5, 34] of over 128. For the same compound, the Minimum inhibitory concentration [5, 35] was over 128, the Minimum inhibitory concentration [6, 36] was 128 and the Minimum inhibitory concentration [6, 37] was 128. The Minimum inhibitory concentration [6, 38] was 64, the Minimum inhibitory concentration [6, 39] was over 128 and the Minimum inhibitory concentration [6, 40] was 128. It also gave a Minimum inhibitory concentration [7, 41] of 2, a Minimum inhibitory concentration [7, 42] of 2 and a Minimum inhibitory concentration [7, 43] of 2. The Minimum inhibitory concentration [7, 44] was 2, the Minimum inhibitory concentration [7, 45] was 2 and the Minimum inhibitory concentration [8, 46] was 1. It also gave a Minimum inhibitory concentration [8, 47] of 2, a Minimum inhibitory concentration [8, 48] of 1 and a Minimum inhibitory concentration [8, 49] of 2. The Minimum inhibitory concentration [8, 50] was 2, the Minimum inhibitory concentration (C. glabrata; [51]) was 16 and the Minimum inhibitory concentration (C. glabrata; [52]) was 16. For the same compound, the Minimum inhibitory concentration (C. glabrata; [53]) was 16, the Minimum inhibitory concentration (C. glabrata; [54]) was 16 and the Minimum inhibitory concentration (C. parapsilosis; [55]) was 8. For the same compound, the Minimum inhibitory concentration (C. parapsilosis; [56]) was 8, the Minimum inhibitory concentration (C. parapsilosis; [57]) was 8 and the Minimum inhibitory concentration (C. parapsilosis; [58]) was 4. The Minimum inhibitory concentration (Candida albicans; [59]) was 16, the Minimum inhibitory concentration (Candida albicans; [60]) was 16 and the Minimum inhibitory concentration (Candida albicans; [61]) was 16. The Minimum inhibitory concentration (Candida albicans; [62]) was 16, the Minimum inhibitory concentration (Candida albicans; [63]) was 16 and the Minimum inhibitory concentration [9, 64] was 4. For the same compound, the Minimum inhibitory concentration [9, 65] was 4, the Minimum inhibitory concentration [9, 66] was 4 and the Minimum inhibitory concentration [9, 67] was 2. For the same compound, the Minimum inhibitory concentration [9, 68] was 2, the Minimum inhibitory concentration [10] was 4 and the Minimum inhibitory concentration (C. quillermondiae) was 4.
